Results on nine substances are retold here after article PMC2628309 (Journal of the American Chemical Society, 2008).

One test concerns the target SH2 domain. As to conditions: validated SH2 domain ligand; cited from earlier work.
In test [1] the target is T1, Src tyrosine kinase (Homo sapiens, UniProt P12931). The test can be described thus: Src kinase inhibition. In kind it is biochemical.
The target in test [2] is T1, Src tyrosine kinase. The note with it: cited from earlier work.
Where [3] appears, read: Table 1, Src inhibitors, pre-photolysis.

Read-outs that look alike come from different tables or passages of the source.

Usually Kd stands for the constant that tells how readily two partners part at equilibrium. Take Ac-pTyrGluGluIle-amide: the dissociation constant Kd at SH2 domain was 1000 to 5000 nM. The IC50 is the concentration that gives 50% inhibition. The substance “Ba-EEEIFGE-II-Dap(Hna)-βA3-pYEEIEX [Compound 7]” returned an IC50 in the test with Src tyrosine kinase [1] (setting [3]) of 220 ± 10 nM. For “Ba-EEEIFGE-III-Dap(Hna)-βA3-pY-III-EIEX [Compound 9]”, the IC50 against Src tyrosine kinase [1] (setting [3]) came to 7500 nM. One may read the Ki as the equilibrium dissociation constant of an inhibitor or competing ligand from its target. Take “Ba-EEEIFGEF-Dap(Hna)-βA3-pYEEIEX [Compound 1]”: on Src tyrosine kinase [2], the IC50 was 36 ± 2 nM and the inhibition constant Ki was 26 ± 4 nM.

Turning to “Ba-EEEIFGEF-Dap(Hna)-βA-I-βA-pYEEIEX [Compound 4]”, at Src tyrosine kinase [1] (setting [3]), half-maximal inhibition (IC50) was put at 115 ± 9 nM. At Src tyrosine kinase [1] (setting [3]), “Ba-EEEIFGEF-Dap(Hna)-βA-II-βA-pYEEIEX [Compound 5]” had a concentration for half-maximal inhibition (IC50) of 38 ± 4 nM. “Ba-EEEIFGEF-Dap(Hna)-βA-III-βA-pY-III-EIEX [Compound 10]” showed an IC50 in the test with Src tyrosine kinase [1] (setting [3]) of 1600 nM. On to “Ba-EEEIFGEF-Dap(Hna)-βA-III-βA-pYEEIEX [Compound 6]”, for which the “Src kinase activity in the presence of inhibitor” value on Src tyrosine kinase [1] (1.9 μM inhibitor, no irradiation) is given as “completely blocked”. Further, the half-inhibitory concentration (IC50) against Src tyrosine kinase [1] (setting [3]) stood at 18 ± 5 nM; at Src tyrosine kinase [1] (in the presence of 320 μM Ac-pTyrGluGluIle-amide (SH2 ligand competition)), 325 ± 60 nM. In the test with Src tyrosine kinase [1] (setting [3]), “Ba-EEEIFGEF-Dap(Hna)C-III-βA-pYEEIE-NH2 [Compound 11]” returned an IC50 of 56 ± 4 nM.
